Assay results: patent publication US20240351996A1, “CDK19-SELECTIVE INHIBITORS, AND METHODS OF USE THEREOF” (CZ BIOHUB SF, LLC, priority 2022, published 2024)

Assays:
CDK8 = CDK8 (Homo sapiens, UniProt P49336); test: LanthaScreen europium kinase binding assay (FRET displacement), CDK8
Protocol: (§1) FRET Displacement Assay to Measure IC50: The CDK19/CDK8 IC50 values were measured to evaluate activity and to determine CDK19/CDK8 selectivity. The IC50 values of the disclosed compounds was measured using a LanthaScreen™ europium kinase binding assay (ThermoFisher), as described herein.
[…] An aliquot of the cocktail solution (10 μL) was added to each well of a LUMITRAC™ 200:384 flat bottom, non-treated microtiter white plate. The plate was then covered to protect light sensitive reagents and incubated for 30 min at room temperature to equilibrate before addition of any inhibitors.
(§2) A serial dilution of the compounds was titrated into each well using an automated liquid handling Staccato integrated system at the following concentration(s) (Log10 Molar [C]): −4.5, −5.0, −5.5, −6.0, −6.5, −7.0, −7.5, −8.0 so that a complete dose-response could be calculated. A Tecan microplate reader infinite m200 instrument was then used to measure the FRET signal of each individual well using an excitation of 317/20 nm, emission europium of 620/12 nm, and emission kinase tracer of 665/12 nm after a 3 h incubation period at room temperature until steady-state kinetics were achieved.
(§3) Results were performed in duplicate and were repeated a total of 3 independent times before data was normalized to the DMSO control group and IC50 values reported.

CDK19/CycC = CDK19/CycC (Homo sapiens, UniProt Q9BWU1); test: LanthaScreen europium kinase binding assay (FRET displacement), CDK19; settings: for IC50: his-tagged CDK19/CycC 5 nM, tracer 10 nM, 3 h incubation; for CDK19 Selectivity: CDK19/CDK8 selectivity based on IC50 values
Protocol: as §1
To a kinase buffer cocktail solution (i.e., 5× Kinase Buffer A) was added: purified recombinant his-tagged CDK19/CycC protein (5 nM), ATP-competitive kinase inhibitor scaffold kinase tracer Alexa Fluor® 665 (10 nM), biotin anti-his tag antibody (2 nM), LanthaScreen® europium-streptavidin (2 nM). An aliquot of the cocktail solution (10 μL) was added to each well of a LUMITRAC™ 200:384 flat bottom, non-treated microtiter white plate. The plate was then covered to protect light sensitive reagents and incubated for 30 min at room temperature to equilibrate before addition of any inhibitors.
as §2, §3

Chain of CDK19/CycC (Q9BWU1 whole entry): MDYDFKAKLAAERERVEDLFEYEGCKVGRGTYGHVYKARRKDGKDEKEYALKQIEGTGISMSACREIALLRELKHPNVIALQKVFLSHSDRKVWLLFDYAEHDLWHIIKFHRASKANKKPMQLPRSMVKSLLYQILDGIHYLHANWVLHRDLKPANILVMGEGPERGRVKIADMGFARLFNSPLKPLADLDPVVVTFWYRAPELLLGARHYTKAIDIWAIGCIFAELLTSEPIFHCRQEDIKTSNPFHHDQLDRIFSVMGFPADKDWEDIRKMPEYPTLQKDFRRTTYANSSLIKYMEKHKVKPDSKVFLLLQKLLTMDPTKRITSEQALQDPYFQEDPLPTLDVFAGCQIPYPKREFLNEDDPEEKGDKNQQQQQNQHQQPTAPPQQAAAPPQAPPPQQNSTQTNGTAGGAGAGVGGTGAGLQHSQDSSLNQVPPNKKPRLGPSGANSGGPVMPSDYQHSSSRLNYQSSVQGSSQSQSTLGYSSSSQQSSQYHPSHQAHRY
Chain of CDK19/CycC (P24863 whole entry partner): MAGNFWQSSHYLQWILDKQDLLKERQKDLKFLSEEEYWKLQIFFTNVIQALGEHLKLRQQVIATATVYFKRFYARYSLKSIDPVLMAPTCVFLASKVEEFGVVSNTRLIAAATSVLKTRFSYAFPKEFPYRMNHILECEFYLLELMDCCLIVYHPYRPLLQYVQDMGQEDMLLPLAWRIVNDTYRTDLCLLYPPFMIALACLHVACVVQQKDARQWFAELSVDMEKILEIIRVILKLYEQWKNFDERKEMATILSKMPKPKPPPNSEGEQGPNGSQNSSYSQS
Chain of CDK8 (P49336 whole entry): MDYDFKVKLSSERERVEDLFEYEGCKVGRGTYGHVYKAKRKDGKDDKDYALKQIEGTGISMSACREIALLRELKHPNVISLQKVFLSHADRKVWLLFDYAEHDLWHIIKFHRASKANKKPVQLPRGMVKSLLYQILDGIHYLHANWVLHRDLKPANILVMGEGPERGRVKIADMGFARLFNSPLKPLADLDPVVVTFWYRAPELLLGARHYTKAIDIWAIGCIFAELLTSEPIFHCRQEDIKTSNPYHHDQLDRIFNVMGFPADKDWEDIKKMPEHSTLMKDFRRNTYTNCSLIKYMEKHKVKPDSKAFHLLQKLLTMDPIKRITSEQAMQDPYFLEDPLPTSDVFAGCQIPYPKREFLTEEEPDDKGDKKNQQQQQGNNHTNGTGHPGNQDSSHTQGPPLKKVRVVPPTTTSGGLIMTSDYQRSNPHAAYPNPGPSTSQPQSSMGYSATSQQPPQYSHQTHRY
Chain of CDK8 (P24863 whole entry partner): as the sequence (P24863 whole entry partner) above

Structure (SMILES) | IC50 (CDK8) [nM] | IC50 (CDK19/CycC) [nM] | CDK19 Selectivity (CDK19/CycC)
Fc1ccc(Nc2ccc(Oc3ccncc3)cn2)cc1 [Compound A81] | 10000 | 10000 | 
COc1cc(N2CCN(C)CC2)ccc1Nc1ncc(Nc2ccncc2)cn1 [Compound A38] | 10000 | 10000 | 
CCCc1ccc(Nc2ncc(Nc3ccnc4ccccc34)cn2)cc1 [Compound A15] | 109 | 96 | 1.1
FC(F)C(F)(F)Oc1ccc(Nc2ncc(Nc3ccncc3)cn2)cc1 [Compound A19] | 38 | 9.1 | 4.2
CC(C)Cc1cccc(Nc2ncc(Nc3ccncc3)cn2)c1 [Compound A28] | 2730 | 1640 | 1.7
CC(C)Cc1ccc(Nc2ncc(Nc3ccncc3Cl)cn2)c(F)c1 [Compound A58] | 2.8 | ≤ 2.5 | 2
Cc1ccc(-c2ccc(Nc3ccc(CC(C)C)cc3)nc2)cc1 [Compound A77] | 3760 | 1080 | 3.5
Cc1cc(CC(C)C)cc(Nc2ncc(Nc3ccncc3)cn2)c1 [Compound A40] |  | 25000 | 
c1cc(Nc2cnc(Nc3ccc(CC4CC4)cc3)nc2)ccn1 [Compound A45] | 214 | 138 | 2
CC(C)Cc1cccc(Nc2ncc(Nc3cccnc3)cn2)c1 [Compound A31] | 9930 | 9030 | 
Cc1ccc2nccc(Nc3cnc(Nc4ccc(CC(C)C)cc4)nc3)c2c1 [Compound A13] | 56 | 24 | 2.4
CC(C)Cc1ccc(Nc2ncc(C(=O)Nc3ccncc3)cn2)cc1 [Compound A49, 2-((4-isobutylphenyl)amino)-N-(pyridin-4-yl)pyrimidine-5-carboxamide] | 9360 | 2490 | 3.9
c1ccc2c(Nc3cnc(Nc4ccc(CC5CC5)cc4)nc3)ccnc2c1 [Compound A43] | 37 | 6 | 6
CC(C)Cc1ccc(Nc2ncc(Nc3ccncc3F)cn2)cc1 [Compound A56] | 27 | ≤ 2.5 | ≥11
CC(C)Cc1ccc(Nc2ncc(C(=O)c3ccncc3)cn2)cc1 [Compound A70] | 46 | ≤ 2.5 | ≥18
c1cc(Nc2cnc(Nc3ccc(C4CCCCC4)cc3)nc2)c(OC2CCCC2)cn1 [Compound A1] | 59 | 69 | 1.2
CC(C)Cc1ccc(Nc2ncc(NC(=O)c3ccncc3)cn2)cc1 [Compound A48, N-(2-((4-isobutylphenyl)amino)pyrimidin-5-yl) isonicotinamide] | 8220 | 1550 | 5.3
Cc1cc(Nc2cnc(Nc3cccc(CC(C)C)c3)nc2)ccn1 [Compound A29] | 2030 | 991 | 2
CC(C)Cc1ccc(Nc2ccc(-c3ccc(C#N)cc3)cn2)cc1 [Compound A79] | 10000 | 10000 | 
O=C(c1ccncc1)c1ccc(Nc2ccc(F)cc2)nc1 [Compound A75] | 1160 | 296 | 3.9
CC(C)Cc1ccc(Nc2ncc(Nc3cncnc3)cn2)cc1 [Compound A63] | 7790 | 1600 | 4.8
CC(C)Cc1ccc(Nc2ccc(C(=O)c3ccncc3)cn2)cc1 [Compound A78] | 13 | 5 | 2.6
CC(C)Cc1ccc(Nc2ncc(Nc3ccnc(C(C)C)c3)cn2)cc1 [Compound A46] | 407 | 88 | 4.6
Cc1cncc(C)c1Nc1cnc(Nc2ccc(CC(C)C)cc2)nc1 [Compound A66] | 5.8 | 4.6 | 1.2
CC(C)Cc1ccc(Nc2ncc(Nc3ccncc3OC3CCCCC3)cn2)cc1 [Compound A54] | 35 | 45 | 0.8
CC(C)Cc1ccc(Nc2ncc(Nc3ccncc3OC3CCCNC3)cn2)cc1 (stereo not shown) [Compound A55] | 44 | 40 | 1.1
O=C(c1ccncc1)c1cnc(Nc2ccc(F)cc2)nc1 [Compound A69] | 2670 | 1410 | 1.9
CCCc1ccc(Nc2ncc(Nc3ccnc(C)c3)cn2)cc1 [Compound A10] | 310 | 99 | 3.1
Cc1cc(Nc2cnc(Nc3ccc(CC(C)C)cc3)nc2)ccn1 [Compound A8] |  |  | 3.3
CC(C)Cc1ccc(Nc2ncc(Nc3ccncc3)cn2)cc1 [Compound A5] |  |  | 3

The next lines start with the values.

IC50 (CDK8) [nM] | IC50 (CDK19/CycC) [nM] | CDK19 Selectivity (CDK19/CycC) | Structure (SMILES)
 |  | 2.5 | CC(C)Cc1ccc(Nc2ncc(Nc3ccncc3)cn2)cc1 [Compound A140]
10000 | 3000 | 3 | CC(C)Cc1ccc(Nc2ncc(Oc3ccncc3)cn2)cc1 [Compound A143]
33 | 7 | 4 | Cc1cc(Nc2cnc(Nc3ccc(CC(C)C)cc3)nc2)c(F)cn1 [Compound A174]
62 | 20 | 3 | CC(C)Cc1ccc(Nc2ncc(C3(c4ccncc4)CC3)cn2)cc1 [Compound A169]
8300 | 5900 | 1 | CC(C)Cc1ccc(Nc2ccc(Oc3ccncc3)cn2)cc1 [Compound A83]
10000 | 10000 |  | CC(C)Cc1ccc(Nc2ncc(-c3ccc(C#N)cc3)cn2)cc1 [Compound A89]
64 | 67 | 1 | CC(C)Cc1ccc(Nc2ncc(Nc3ccncc3OC3CCCC3(C)C)cn2)cc1 (stereo not shown) [Compound A157]
11 | 5 | 2 | Cc1cc(CC(C)C)ccc1Nc1ncc(C(=O)c2ccncc2OC2CCCC2)cn1 [Compound A172]
244 | 52 | 5 | CC(C)Cc1ccc(Nc2ncc(Nc3ccnc(C4CC4)c3)cn2)cc1 [Compound A173]
1020 | 335 | 3 | CC(C)Cc1ccc(Nc2ncc(-c3cccc(C#N)c3)cn2)cc1 [Compound A92]
34 | 8.9 | 3.8 | Cc1cc(CC(C)C)ccc1Nc1ncc(C(=O)c2ccncc2)cn1 [Compound A128]
160 | 31 | 5 | CC(C)Cc1ccc(Nc2ccc(C(=O)c3ccncc3F)cn2)cc1 [Compound A122]
869 | 438 | 2 | Cc1cc(C#N)cc(-c2cnc(Nc3ccc(CC(C)C)cc3)nc2)c1 [Compound A94]
4.1 | ≤ 2.5 | 1.9 | CC(C)Cc1ccc(Nc2ncc(C(=O)c3ccncc3F)cn2)cc1 [Compound A116]
268 | 72 | 3.8 | CC(C)Cc1ccc(Nc2ccc(Nc3ccncc3)cn2)cc1 [Compound A85]
10000 | 10000 | 1 | Fc1ccc(Nc2ncc(Oc3ccncc3)cn2)cc1 [Compound A142]
18 | 5.5 | 3.2 | CC(C)Cc1ccc(Nc2ncc(C(F)(F)c3ccncc3)cn2)cc1 [Compound A139]
5 | 5 | 1 | Cc1nc(Nc2ccc(CC(C)C)cc2)ncc1Nc1ccncc1C(F)(F)F [Compound A166]
3 | ≤ 2.5 |  | CC(C)Cc1ccc(Nc2ncc(Nc3ccncc3C#N)cn2)cc1 [Compound A149]
605 | 266 |  | CC(C)Cc1ccc(Nc2ncc(Nc3ccc4c(c3)CNC4=O)cn2)cc1 [Compound A153]
4630 | 1060 |  | CC(C)Cc1ccc(Nc2ncc(S(=O)(=O)c3ccncc3)cn2)cc1 [Compound A152]
10000 | 1800 | 5.6 | CC(C)Cc1ccc(Nc2ncc(-c3ccncc3)cn2)cc1 [Compound A99]
10000 | 7680 | 1.3 | Cc1ccc(-c2cnc(Nc3ccc(CC(C)C)cc3)nc2)cc1 [Compound A103]
 |  | 2.5 | Cc1cc(Nc2cnc(Nc3ccc(CC(C)C)cc3)nc2)ccn1 [Compound A144]
 | 1110 |  | O=C(NC1CCCC1)c1cnccc1Nc1cnc(Nc2ccc(C3CCCCC3)cc2)nc1 [Compound A151]
